Converted amounts (≈) assume the structure as drawn.
How the values were obtained:
[1] = Murine flank tumour model, synthesized compound (II) (DHODO): body weights; assay type: in vivo, nude mice (strain J:NU)
Method: To establish the tumours, MDA-MB-231 breast cancer cells (2.5 million cells in 100 pl 50:50 matrigel:DMEM) were injected subcutaneously into both right and left flanks. Tumours were evaluated over a 2-week period until sufficient volume growth (approximately 20 mm3) for subsequent analysis had occurred. During this period, body weights were measured twice weekly. Mice with established tumours were treated every second day by intraperitoneal injections of test compounds over a 4-week time course. From each group a minimum of 15 tumours were selected for analysis. Tumours were measured weekly using external calipers and volumes established using the modified ellipsoidal formula: tumour volume=0.5 (length×width2). In addition, body weights and general animal health were assessed twice weekly during the treatment period. At study termination, mice were sacrificed and tumours excised from the flank was weighed. To evaluate tumour metastasis, an explorative necropsy was conducted in each mouse and the presence and frequency of additional tumours at sites distal to the flank were assessed.

[2] = tested on: MDA-MB-231 human breast cancer cells; test: Murine flank tumor model, pure compound (II): tumor volume and weight; assay type: in vivo, nude mice (strain J:NU); settings: for Tumour weight (mg) ± SEM, extracted at necropsy: intraperitoneal every second day, 4 weeks
Method: Animal studies were conducted under ACC protocol #17-020 and Biosafety protocol #6007077 approved by the Atlantic Veterinary College (AVC, UPEI). Briefly, homozygous outbred nude mice (strain J:NU, 4-weeks old, female) suitable as immunodeficient tumor transplant hosts were procured from a commercial supplier (Jackson Labs, Maine, USA) and acclimatized in a barrier facility (AVC, UPEI) for one week.
To establish the tumors, MDA-MB-231 human breast cancer cells were cultured in vitro and harvested when they were between 60 to 80% confluent. Under anesthetized conditions, each the mouse was injected subcutaneously into both right and left flanks with […] (50:50 in matrigel:DMEM). Tumors development was monitored over a 2-week period. At 2 weeks, tumor established mice (tumor volume ˜20 mm^3) were selected and randomly grouped based on the tumor volume and body weight into ten mice per group as follows: • Group 1: Vehicle control (VC, DMSO 2%, Kholliphor EL 2%) • Group 2: Compound (II), 10 mg/kg body weight • Group 3: Compound (II), 5 mg/kg body weight
Seaweed extract was dissolved in molecular grade DMSO, liquid emulsion was prepared in Kholliphor EL (Sigma, USA) and the final injectable solution was prepared using sterile normal saline.
Mice with established tumors were treated every second day by intraperitoneal injections of test extracts over a 4-week time course. From each group a minimum of 16 tumors were selected for analysis. Tumors were measured weekly using external calipers and volumes established using the modified ellipsoidal formula: tumor volume=0.5 (length×width^2).
In addition, body weights and general animal health were assessed twice weekly during the treatment period. At study termination, mice were sacrificed, and tumors excised from the flank. To evaluate tumor metastasis, an explorative necropsy was conducted in each mouse and the presence and frequency of additional tumors at sites distal to the flank were assessed. Tumor tissue from the flank region was collected and preserved in 10% neutral buffered formalin for histology. Variance within each of the treatment groups to vehicle control was assessed over the four-week time course by one-way ANOVA.

[3] = tested on: MDA-MB-231 (mammary gland adenocarcinoma); test: CIMA assay (MTT, 72 h); assay type: cell-based, human; settings: Homo sapiens, MDA-MB-231
Method: Experimental: Stock solutions of the test compounds were prepared in dimethylsulfoxide (DMSO) at 10 mg/ml and stored at −20° C. until used. This preparation ensures that the DMSO content delivered to cells in culture never exceeds 1%. […] Cell proliferation was initially assessed using a standard colorimetric indicator of metabolic activity (CIMA) assay. In this assay, reduction of yellow tetrazolium salt (MTT) to purple formazan by mitochondrial reductases enzymes in viable cells were measured as change in absorbance (λ=500-600).
Seven human cell lines were evaluated: U373 (glioblastoma-astrocytoma), A549 (lung carcinoma), PC3 (prostate adenocarcinoma), THP1 (acute monocytic leukemia), MDA-MB-231 (mammary gland adenocarcinoma), SKOV3 (ovarian adenocarcinoma) and CCD1079Sk (normal skin fibroblast) cells.

CCCCC[C@H](O)[C@H](O)/C=C/[C@@H]1CCCCCCCC(=O)O1 [compound (II), 12R, 13S-Dihydroxy-10-Octadecen-9S-olide]
Body weight change Δ over the four-week trial ([1]; 1 mg/kg): 0.6 g
Body weight ([1]; 1 mg/kg, Week 1): 21.9 g
Body weight ([1]; 1 mg/kg, Week 2): 22.5 g
Body weight ([1]; 1 mg/kg, Week 3): 22.1 g
Body weight ([1]; 1 mg/kg, Week 4): 22.5 g
Body weight change Δ over the four-week trial ([1]; 5 mg/kg): 0.9 g
Body weight ([1]; 5 mg/kg, Week 1): 23.8 g
Body weight ([1]; 5 mg/kg, Week 2): 24.8 g
Body weight ([1]; 5 mg/kg, Week 3): 24.3 g
Body weight ([1]; 5 mg/kg, Week 4): 24.9 g
Body weight change Δ over the four-week trial ([1]; 10 mg/kg): 0.8 g
Body weight ([1]; 10 mg/kg, Week 1): 24.2 g
Body weight ([1]; 10 mg/kg, Week 2): 24.8 g
Body weight ([1]; 10 mg/kg, Week 3): 24.3 g
Body weight ([1]; 10 mg/kg, Week 4): 25.0 g
Tumour volumes ± SEM ([2]; 5 mg/kg b. wt. i.p. every second day, Week 0): 26.94 ± 1.98 mm^3
Tumour volumes ± SEM ([2]; 5 mg/kg b. wt. i.p. every second day, Week 1): 20.83 ± 2.20 mm^3
Tumour volumes ± SEM ([2]; 5 mg/kg b. wt. i.p. every second day, Week 2): 17.38 ± 2.04*¶ mm^3
Tumour volumes ± SEM ([2]; 5 mg/kg b. wt. i.p. every second day, Week 3): 17.23 ± 3.18*¶ mm^3
Tumour volumes ± SEM ([2]; 5 mg/kg b. wt. i.p. every second day, Week 4): 28.01 ± 3.61*¶ mm^3
Tumour weight (mg) ± SEM, extracted at necropsy ([2]; 5 mg/kg b.wt.): 34.64 ± 15.78 mg
Tumour volumes ± SEM ([2]; 10 mg/kg b. wt. i.p. every second day, Week 0): 27.09 ± 1.60 mm^3
Tumour volumes ± SEM ([2]; 10 mg/kg b. wt. i.p. every second day, Week 1): 24.06 ± 1.98 mm^3
Tumour volumes ± SEM ([2]; 10 mg/kg b. wt. i.p. every second day, Week 2): 17.40 ± 2.88*¶ mm^3
Tumour volumes ± SEM ([2]; 10 mg/kg b. wt. i.p. every second day, Week 3): 18.95 ± 5.34*¶ mm^3
Tumour volumes ± SEM ([2]; 10 mg/kg b. wt. i.p. every second day, Week 4): 28.37 ± 9.37*¶ mm^3
Tumour weight (mg) ± SEM, extracted at necropsy ([2]; 10 mg/kg b.wt.): 27.29 ± 8.07 mg
tumor volume at the end of 4-weeks (average) ([2]; 5 and 10 mg/kg, controls rose from 26 to 73 mm^3): ~27 mm^3
change in tumor size during the 4-week study ([2]; both tested concentrations (5 and 10 mg/kg)): no significant change in tumor size
viability at 1 µg/mL ([3]; MDA-MB, 1 ug/mL, read-out: average cell viability): 101%
viability at 10 µg/mL ([3]; MDA-MB, 10 ug/mL, read-out: average cell viability): 96%
viability at 50 µg/mL ([3]; MDA-MB, 50 ug/mL, read-out: average cell viability): 66%
viability at 100 µg/mL ([3]; MDA-MB, 100 ug/mL, read-out: average cell viability): 20%
IC50 ([3]; 72 h): 34.3 µg/mL (≈ 110 µM)

Source: US20210323940A1 (OCEANS LTD., priority 2018, published 2021)
